# PMC6154319, “Intestinal Transport Characteristics and Metabolism of C-Glucosyl Dihydrochalcone, Aspalathin” (Molecules : A Journal of Synthetic Chemistry and Natural …, 2017)
# Marks after values point to notes of the source that are not given here.
# Tests used:
# [1] = Lipophilicity, LogD7.4 (n-octanol / phosphate buffer shake flask); format: physicochemical; conditions: phosphate buffer pH 7.4 / n-octanol
# Protocol: For determination of the lipophilicity of aspalathin, a 10 mM stock solution prepared in DMSO was used to spike (100 µM) a 1:1 mixture of phosphate buffer (pH 7.4) and n-octanol. The solutions were shaken vigorously (1500 rpm) on an orbital shaker for 4 h at room temperature. Thereafter, the samples were centrifuged (3500 rpm, 2700× g) in order to fully separate the two immiscible fluids. The samples analysed using HPLC-DAD (Agilent 1200 Rapid Resolution HPLC) and the partition coefficient, LogD7.4 calculated.
# Caco-2 monolayer = assay: in vitro
# Protocol: Validation of the Caco-2 transport experiments required consideration of three parameters, i.e., firstly, to determine the cytotoxic concentrations of synthetic aspalathin, secondly, the concentration of aspalathin required to ensure HPLC detection in the basolateral compartment, and finally, to assess whether the transport of aspalathin is concentration dependent.
# Cells were cultured at 37 °C and 5% CO2 in 95% humidified air in Eagle’s Minimum Essential Medium (EMEM) containing sodium […] pyruvate, supplemented with 2 mM L-glutamine, 1% non-essential amino acids and 10% heat inactivated FBS. Cell cultures were split when 70%–80% confluent, using trypsin/ethylenediaminetetraacetic acid (EDTA). The culture medium, pre-warmed to 37 °C, was refreshed every 2–3 days. Cells were seeded at 1 × 10^4 cells/cm^2 and a sub-cultivation ratio of 1:3 was routinely used. Cells were seeded with the addition of 1% penicillin/streptomycin mixture (10,000 units/mL potassium penicillin and 10,000 µg/mL streptomycin sulphate) at 4 × 10^4 cells/cm^2 onto 0.4 µm polycarbonate 6-well inserts with an insert area of 4.52 cm^2. Cells were used for transport experiments when TEER values across wells were >300 Ω, typically 21–23 days post confluence. Only passages 50–60 were used to prevent phenotypic drift.
# (§1) The cell monolayers were equilibrated briefly with transport buffer, pH 6.0 (HBSS with 2-(N-morpholino) ethanesulphonic acid (MES)) on the apical side and pH 7.4 (HBSS with HEPES) on the basolateral side, to remove traces of the culture media. Following this, transport buffers were added for 30 min prior to the addition of treatment (inhibitors were added during this step when required, as well as during the subsequent treatment incubation step). After equilibration, the plates containing transport medium were incubated for 30 min at 37 °C at 5% CO2 in 95% humidified air and the TEER value of the monolayer determined. […] For basolateral-to-apical compartment studies, 2.4 mL of treatment at the same concentrations in HBSS (pH 7.4), was added to the basolateral compartment.
# (§2) To assess whether aspalathin was co-transported with glucose, its transport (100 µM) at both high (20.5 mM) and low (5.5 mM) glucose concentrations, mimicking the intestinal lumen glucose concentrations pre- and post-meals, was monitored. This was followed by experiments performed in the presence and absence of SGLT1 (100 µM phloridzin), GLUT2 (100 µM phloretin) and efflux, PgP (100 µM verapamil) inhibitors.
# (§3) Samples (1.2 mL) were withdrawn from the basolateral or the apical compartment to measure the concentration of aspalathin uptake and efflux, respectively at 0, 0.5, 1, 1.5, and 2 h under sink conditions (the sample aliquot replaced with equal volume of relevant transport buffer). Sample aliquots (350 µL) were frozen in liquid nitrogen after the addition of ascorbic acid (35 µL of 10% solution) and stored at −65 °C until HPLC analysis. Results were corrected for dilution and expressed as cumulative transport (% of initial dose) as a function of time. Papp (cm/s) for bi-directional transport studies was calculated as previously described. Transport of other major flavonoids in the matrices, i.e., nothofagin, the 3-deoxy analogue of aspalathin and its flavone derivatives, orientin and isoorientin, were also determined.
# Lucifer yellow (final concentration 0.1 mM) was used as a membrane integrity marker and co-incubated with the compounds and extracts.
# HPLC-DAD analysis of samples from the apical and basolateral compartments was performed in duplicate on an Agilent 1200 system as previously described. Basolateral and apical samples taken after 2 h with pure aspalathin were also analysed using LC-MS (parameters described in [42]) to determine whether aspalathin metabolites were formed in the Caco-2 model.
# All experiments were performed in triplicate and the data expressed as mean ± SD, unless otherwise indicated.
# PgP = PgP (Homo sapiens, UniProt P08183); conditions: aspalathin 100 µM; 100 µM verapamil (PgP)
# Chain of PgP (P08183 whole entry): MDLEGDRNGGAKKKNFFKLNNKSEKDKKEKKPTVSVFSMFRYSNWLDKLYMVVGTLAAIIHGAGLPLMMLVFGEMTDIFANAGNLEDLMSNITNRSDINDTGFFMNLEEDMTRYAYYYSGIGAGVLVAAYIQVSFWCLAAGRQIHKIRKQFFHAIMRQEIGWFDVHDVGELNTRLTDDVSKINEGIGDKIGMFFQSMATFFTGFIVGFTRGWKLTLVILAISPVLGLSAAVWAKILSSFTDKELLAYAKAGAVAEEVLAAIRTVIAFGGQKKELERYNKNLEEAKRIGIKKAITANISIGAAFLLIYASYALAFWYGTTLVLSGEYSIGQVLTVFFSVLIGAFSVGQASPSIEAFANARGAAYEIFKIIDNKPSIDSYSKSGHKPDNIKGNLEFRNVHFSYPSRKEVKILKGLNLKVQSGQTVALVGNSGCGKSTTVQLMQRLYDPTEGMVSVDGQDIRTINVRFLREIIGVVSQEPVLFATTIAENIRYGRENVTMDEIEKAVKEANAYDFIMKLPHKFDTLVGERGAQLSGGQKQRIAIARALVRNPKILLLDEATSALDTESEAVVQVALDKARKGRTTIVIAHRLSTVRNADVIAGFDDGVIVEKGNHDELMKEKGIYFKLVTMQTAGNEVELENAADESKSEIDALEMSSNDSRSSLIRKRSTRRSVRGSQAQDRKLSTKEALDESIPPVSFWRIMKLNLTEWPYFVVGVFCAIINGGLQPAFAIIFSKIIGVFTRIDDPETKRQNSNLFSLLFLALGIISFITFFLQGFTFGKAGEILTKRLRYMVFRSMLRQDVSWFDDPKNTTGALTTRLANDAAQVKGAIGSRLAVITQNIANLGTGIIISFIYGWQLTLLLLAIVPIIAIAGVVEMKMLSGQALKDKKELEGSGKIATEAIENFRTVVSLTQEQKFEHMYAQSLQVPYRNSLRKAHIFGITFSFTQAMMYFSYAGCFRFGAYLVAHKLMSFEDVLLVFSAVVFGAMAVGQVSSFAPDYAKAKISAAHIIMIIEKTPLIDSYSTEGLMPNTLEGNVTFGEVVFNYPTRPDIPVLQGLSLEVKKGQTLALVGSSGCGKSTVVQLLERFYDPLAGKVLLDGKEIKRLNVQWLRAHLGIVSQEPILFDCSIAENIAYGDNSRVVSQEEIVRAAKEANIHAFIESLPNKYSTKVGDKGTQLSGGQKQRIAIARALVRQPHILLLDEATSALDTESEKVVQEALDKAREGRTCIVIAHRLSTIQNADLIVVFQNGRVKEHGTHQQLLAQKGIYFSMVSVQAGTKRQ
# Protocol: as §1, §2, §3
# [2] = Extended Clearance Classification System (ECCS) classification; conditions: weak acid, molecular weight higher than 400 g/mol
compound,measurement,setting,value
O=C(CCc1ccc(O)c(O)c1)c1c(O)cc(O)c([C@@H]2O[C@H](CO)[C@@H](O)[C@H](O)[C@H]2O)c1O [Aspalathin],Log D at pH 7.4,[1],0.13
same,Papp a-b with high glucose,Caco-2 monolayer; Caco-2,2.90 ± 0.75 × 10^−7 cm/s
same,Papp a-b − Inhibitor,Caco-2 monolayer; Caco-2,1.73 ± 0.97 ×10^−6 cm/s
same,Papp b-a,Caco-2 monolayer; Caco-2,2.15 ± 0.23 × 10^—6 cm/s
same,Papp b-a − Inhibitor,Caco-2 monolayer; Caco-2,2.09 ± 0.23 ×10^−6 cm/s
same,Papp (cm/s) a-b × 10^−6,"Caco-2 monolayer; buffered solution of synthetic aspalathin, 1 µM",2.28 ± 0.09 cm/s × 10^−6
same,Papp (cm/s) a-b × 10^−6,"Caco-2 monolayer; from aspalathin-enriched green rooibos extract SB1, 0.38 mg/mL (153, 11, 17, 9 µM aspalathin, nothofagin, isoorientin, orientin)",2.00 ± 1.10 cm/s × 10^−6
same,Papp (cm/s) a-b × 10^−6,"Caco-2 monolayer; from semi-purified fraction PEF1, 0.15 mg/mL (149, 21, 12, 8 µM aspalathin, nothofagin, isoorientin, orientin)",2.11 ± 0.20 cm/s × 10^−6
same,Efflux Ratio + Inhibitor (verapamil),PgP,1.1 ^c
same,Papp a-b + Inhibitor (verapamil),PgP,1.84 ± 0.20 ^c ×10^−6 cm/s
same,Papp b-a + Inhibitor (verapamil),PgP,1.94 ± 0.68 ^c ×10^−6 cm/s
same,ECCS class,[2],3B
